Test results as given in PMC7029851, “Antibacterial activity of novel dual bacterial DNA type II topoisomerase inhibitors” (PLoS ONE, 2020).
In brackets after ≈: the same amount, converted by molar mass. Read-outs that look alike come from different tables or passages of the source.

Assays:
[1] = tested on: E. coli ATCC 25922; experiment: Time-kill assay; assay type: cell-based, Escherichia coli; conditions: 1× to 4× MIC, over 24 hours
Method: Time-kill experiments were performed according to the procedure reported by Knapp. […] A drug-free control was included in each experiment. The bacterial cultures were standardized to obtain an initial inoculum that ranged from 5×10^5 to 5×10^6 CFU/ml. The cultures were incubated at 37°C in a shaking bath. At 0, 2, 4, 8 and 24-hour intervals, viable counts were performed by spotting (in triplicate) 10 μl aliquots of suitable dilutions of the cultures onto Mueller-Hinton agar (MHA, Oxoid, Basingstoke, UK) plates. After incubation at 37°C for 24 hours, the bactericidal activity, namely, the ability to reduce the initial inoculum by 3 log10 CFU/ml, was assessed for each tested concentration over time.

[2] = molecular target: T1, hERG channel (Homo sapiens, UniProt Q12809); experiment: hERG automated patch clamp assay; assay type: cell-based; conditions: CHO-K1, read-out: IC50 against hERG channels
T1 construct: expressed in transfected cells; host or cells: CHO-K1
From the text: hERG automated patch clamp assay. The human recombinant ERG CHO-K1 cell line was used in an automated patch clamp assay (qPatch system) to evaluate the hERG channel blockade potential of compounds 1 and 2 [36]. Concentration (log) response curves were fitted to a logistic equation to generate estimates of the 50% inhibitory value.

[3] = tested on: E. coli ATCC 25922; experiment: Minimal bactericidal concentration; assay type: cell-based, Escherichia coli; conditions: for MBC: Escherichia coli, ATCC25922, ≥99.9% reduction of inoculum
Method: Minimal bactericidal concentrations (MBCs) were determined according to the procedure described by Knapp. Viable counts were performed after plates were incubated at 37°C for 24 hours. The MBC was defined as the lowest concentration that reduced the viability of the initial bacterial inoculum by ≥99.9%.

[4] = tested on: HepG2 mammalian cell line; experiment: Cytotoxicity assay (CellTiter-Blue); assay type: cell-based; conditions: Homo sapiens, HepG2, 24 hours of incubation, read-out: IC50 mammalian cell viability
Method: Cytotoxicity assay. Cytotoxicity of compounds 1 and 2 was assessed, after 24 hours of incubation in EMEM containing 10% fetal bovine serum, HepG2 mammalian cell line viability was evaluated using CellTiter-Blue Cell Viability Assay (Promega, WI, USA) according to the manufacturer’s instructions. Concentration-response curves were obtained by non-linear regression analysis using the GraphPad PRISM 6 software.

[5] = tested on: S. aureus ATCC 29213; assay type: cell-based, Staphylococcus aureus

T1 sequence (Q12809 whole entry): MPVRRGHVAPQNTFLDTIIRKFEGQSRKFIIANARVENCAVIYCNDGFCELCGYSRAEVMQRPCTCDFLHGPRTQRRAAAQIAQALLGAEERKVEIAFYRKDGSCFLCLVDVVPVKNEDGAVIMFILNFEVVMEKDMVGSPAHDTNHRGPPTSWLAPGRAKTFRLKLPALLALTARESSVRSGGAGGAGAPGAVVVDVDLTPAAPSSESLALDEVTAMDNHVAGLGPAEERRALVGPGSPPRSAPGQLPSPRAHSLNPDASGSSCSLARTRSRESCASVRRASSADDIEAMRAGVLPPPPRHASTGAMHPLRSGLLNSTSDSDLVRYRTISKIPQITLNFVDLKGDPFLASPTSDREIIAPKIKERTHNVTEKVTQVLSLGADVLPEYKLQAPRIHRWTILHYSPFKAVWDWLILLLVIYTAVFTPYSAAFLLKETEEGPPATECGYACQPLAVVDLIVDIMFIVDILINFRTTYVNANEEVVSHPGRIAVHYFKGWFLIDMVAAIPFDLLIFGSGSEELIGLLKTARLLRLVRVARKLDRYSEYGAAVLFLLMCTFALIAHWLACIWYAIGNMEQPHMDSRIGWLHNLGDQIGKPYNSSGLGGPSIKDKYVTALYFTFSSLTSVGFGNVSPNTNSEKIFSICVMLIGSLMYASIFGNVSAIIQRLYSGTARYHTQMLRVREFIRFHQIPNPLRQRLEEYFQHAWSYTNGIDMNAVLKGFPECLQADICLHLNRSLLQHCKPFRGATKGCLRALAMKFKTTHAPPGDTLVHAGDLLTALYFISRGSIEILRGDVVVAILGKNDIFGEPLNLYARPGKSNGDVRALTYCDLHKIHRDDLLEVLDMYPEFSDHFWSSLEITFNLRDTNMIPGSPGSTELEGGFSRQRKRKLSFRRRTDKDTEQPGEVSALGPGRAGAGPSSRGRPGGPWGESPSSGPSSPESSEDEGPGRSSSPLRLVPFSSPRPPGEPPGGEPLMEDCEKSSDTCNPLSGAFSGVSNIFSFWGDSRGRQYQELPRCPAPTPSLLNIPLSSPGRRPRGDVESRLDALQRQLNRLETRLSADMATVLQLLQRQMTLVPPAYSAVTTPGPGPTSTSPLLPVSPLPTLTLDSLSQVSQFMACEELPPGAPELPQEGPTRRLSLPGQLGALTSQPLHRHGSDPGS

| SMILES | Bactericidal activity in time-kill (reduction of 3 log10 CFU/ml) [1] | IC50 [2] | MBC/MIC [3] | MBC [3] | IC50 [4] | IC50 ([4]; same value in μg/ml) | In vitro frequency of resistant mutants ([5]; S. aureus ATCC 29213, 2×MIC) | In vitro frequency of resistant mutants ([5]; S. aureus ATCC 29213, 4×MIC) |
| --- | --- | --- | --- | --- | --- | --- | --- | --- |
| O=C1COc2ncc(F)cc2N1[C@H]1CC[C@H](NCc2cc3c(=O)oc4ccc(F)cc4c3[nH]2)CC1 [Compound 1, 8-fluoro-2-({[trans-4-(7-fluoro-2-oxo-2,3-dihydro-1H-pyrido[2,3-b][1,4]oxazin-1-yl)cyclohexyl]amino}methyl)[1]benzopyrano[4,3-b]pyrrol-4(1H)-one] | bactericidal effect | 8.9 µM | 2 | 1 µg/mL (≈ 2.08 µM) | 9 µM | 4 µg/mL | TNTC | 1.4×10^−7 |
| Cl.N#Cc1ccc2ccc(=O)n([C@H]3CC[C@H](NCc4cc5c(=O)oc6ccc(F)cc6c5[nH]4)CC3)c2c1 [Compound 2, 1-(trans-4-{[(8-fluoro-4-oxo-1,4-dihydro[1]benzopyrano[4,3-b]pyrrol-2-yl)methyl]amino}cyclohexyl)-2-oxo-1,2-dihydroquinoline-7-carbonitrile hydrochloride] | no bactericidal activity | > 100 µM | 2 | 1 µg/mL | > 300 µM | > 145 µg/mL | 6.7×10^−7 |  |
